# Literature values in patent publication EP4516295A1, “PH-INDUCIBLE STRUCTURE-SWITCHING LIPID NANOVECTORS, SEMI-SYNTHETIC EXTRACELLULAR VESICLES, METHODS OF MAKING SAME AND USES THEREOF” (ETH Zurich, priority 2023, dated 2025).
# Details: apparent acid dissociation constant prior to incorporation in LNVs
row,pKa,Structure (SMILES)
1,6.09,CCCCCCCCC(CCCCCC)C(=O)OCCCCCCN(CCCCO)CCCCCCOC(=O)C(CCCCCC)CCCCCCCC (stereo not drawn) [ALC-0315]
2,5.9,"CCCC/C=C\C/C=C\CCCCCCCCCC1(CCCCCCCC/C=C\C/C=C\CCCCC)OCC(CN(C)C)O1 [D-Lin-K-DMA, N,N-dimethyl-1-(2-((10Z,13Z)-octadeca-10,13-dien-1-yl)-2-((9Z,12Z)-octadeca-9,12-dien-1-yl)-1,3-dioxolan-4 yl)methanamine]"
3,6.68,"CCCC/C=C\C/C=C\CCCCCCCCCC1(CCCCCCCC/C=C\C/C=C\CCCCC)OCC(CCN(C)C)O1 (stereo not drawn) [DLin-KC2-DMA, N,N-dimethyl-2-(2-((10Z,13Z)-octadeca-10,13-dien-1-yl)-2-((9Z,12Z)-octadeca-9,12-dien-1-yl)-1,3-dioxolan-4-yl)ethan-1-amine]"
4,7.2,"CCCC/C=C\C/C=C\CCCCCCCCCC1(CCCCCCCC/C=C\C/C=C\CCCCC)OCC(CCCN(C)C)O1 (stereo not drawn) [DLin-KC3-DMA, N,N-dimethyl-3-(2-((10Z,13Z)-octadeca-10,13-dien-1-yl)-2-((9Z,12Z)-octadeca-9,12-dien-1-yl)-1,3-dioxolan-4-yl)propan-1-amine]"
5,7.3,"CCCC/C=C\C/C=C\CCCCCCCCCC1(CCCCCCCC/C=C\C/C=C\CCCCC)OCC(CCCCN(C)C)O1 (stereo not drawn) [DLin-KC4-DMA, N,N-dimethyl-4-(2-((10Z,13Z)-octadeca-10,13-dien-1-yl)-2-((9Z,12Z)-octadeca-9,12-dien-1-yl)-1,3-dioxolan-4-yl)butan-1-amine]"
6,6.44,"CCCCC/C=C\C/C=C\CCCCCCCCC(CCCCCCCC/C=C\C/C=C\CCCCC)OC(=O)CCCN(C)C [DLin-MC3-DMA, 4-(dimethylamino)-butanoic acid, (10Z,13Z)-1-(9Z,12Z)-9,12-octadecadien-1-yl-10,13-nonadecadien-1-yl ester]"
7,6.38,CCCCCC/C=C\COC(=O)CCCCCCCC(CCCCCCCC(=O)OC/C=C\CCCCCC)OC(=O)CCCN(C)C [L319]
8,6.68,CCCCCCCCCCCOC(=O)CCCCCN(CCO)CCCCCCCC(=O)OC(CCCCCCCC)CCCCCCCC [SM-102]

row,Structure (SMILES),pKa
1,"CCCCC/C=C\C/C=C\CCCCCCCCOCC(CN(C)C)OCCCCCCCC/C=C\C/C=C\CCCCC (stereo not drawn) [DLin-DMA, 1,2-dilinoleyloxy-N,N-dimethyl-3-aminopropane]",6.8
